# Patent US10653784B2, “Hydrophobic highly branched carbohydrate polymers” (Purdue Research Foundation, priority 2015, dated 2020)
# Tests used:
# [1] = Solubility of celecoxib in HBSS (centrifugation, HPLC of supernatant); type: physicochemical; conditions: Hank's Balanced Salt Solution (HBSS), aqueous buffer, thermodynamic from solid, 37° C., 2 h mixing, API/excipient 1/5, total dispersed API 1,000 μg/mL, 16,000 g 10 min, read-out: water solubility of celecoxib (concentration in supernatant)
# Protocol: FIG. 8 provides a graph showing the solubility of celecoxib when incorporated with OHPP, HPMCAS, and Soluplus, as compared with that of celecoxib alone. The ratios between celecoxib and each excipient was 1/5, with total dispersed API of 1,000 μg/mL in HBSS buffer (37° C.). The mixing time was 2 h before subjecting the dispersion to centrifugation to collect supernatant for celecoxib quantification. The weight ratio of celecoxib, OHPP, and HPMCAS was 1, 3, and 2 respectively for the Cel-OHPP-HPMCAS preparation.
# Thereafter, the dispersions were centrifuged at 16,000 g for 10 min, and the supernatants were collected for celecoxib quantification using HPLC. The concentration of celecoxib in the supernatant was considered as its water solubility.
# physchem = type: physicochemical
# Protocol: (§1) FIG. 7 provides a graph showing the solubility of curcumin when incorporated with OHPP, HPMCAS, and Soluplus, as compared with that of curcumin alone. The ratio between curcumin and excipient was 1/9, with total dispersed curcumin of 1,000 μg/mL in HBSS buffer (37° C.). The mixing time was 2 h before subjecting the dispersion to centrifugation to collect supernatant for curcumin quantification.
# Thereafter, the dispersions were centrifuged at 16,000 g for 10 min, and the supernatants were collected for curcumin quantification using HPLC. The concentration of curcumin in the supernatant was considered as its water solubility.
# [2] = Solubility of docetaxel in HBSS (centrifugation, HPLC of supernatant); type: physicochemical; conditions: Hank's Balanced Salt Solution (HBSS), aqueous buffer, thermodynamic from solid, 20° C., 10 min vortex, API/excipient 1/3, total dispersed API 2,500 μg/mL, 16,000 g 10 min, read-out: water solubility of docetaxel (concentration in supernatant)
# Protocol: as §1, with “5” for “7”, “docetaxel” for “curcumin”, “1/3,” for “1/9,”, “2,500” for “1,000”, “(20°” for “(37°”, “10 min” for “2 h”
# Thereafter, the dispersions were centrifuged at 16,000 g for 10 min, and the supernatants were collected for docetaxel quantification using HPLC. The concentration of docetaxel in the supernatant was considered as its water solubility.
# [3] = Solubility of griseofulvin in HBSS (centrifugation, HPLC of supernatant); type: physicochemical; conditions: Hank's Balanced Salt Solution (HBSS), aqueous buffer, thermodynamic from solid, 37° C., 2 h mixing, API/excipient 1/3, total dispersed API 2,500 μg/mL, 16,000 g 10 min, read-out: water solubility of griseofulvin (concentration in supernatant)
# Protocol: The mixing time was 2 h before subjecting the dispersion to centrifugation to collect supernatant for griseofulvin quantification.
# Thereafter, the dispersions were centrifuged at 16,000 g for 10 min, and the supernatants were collected for griseofulvin quantification using HPLC. The concentration of griseofulvin in the supernatant was considered as its water solubility.
# [4] = Solubility of itraconazole in HBSS (centrifugation, HPLC of supernatant); type: physicochemical; conditions: Hank's Balanced Salt Solution (HBSS), aqueous buffer, thermodynamic from solid, 20° C., 10 min vortex, API/excipient 1/3, total dispersed API 2,500 μg/mL, 16,000 g 10 min, read-out: water solubility of itraconazole (concentration in supernatant)
# Protocol: as §1, with “6” for “7”, “itraconazole” for “curcumin”, “1/3,” for “1/9,”, “2,500” for “1,000”, “(20°” for “(37°”, “10 min” for “2 h”
# Thereafter, the dispersions were centrifuged at 16,000 g for 10 min, and the supernatants were collected for itraconazole quantification using HPLC. The concentration of itraconazole in the supernatant was considered as its water solubility.
# [5] = Solubility of niclosamide in HBSS (centrifugation, HPLC of supernatant); type: physicochemical; conditions: Hank's Balanced Salt Solution (HBSS), aqueous buffer, thermodynamic from solid, 37° C., 2 h mixing, API/excipient 1/3, total dispersed API 2,500 μg/mL, 16,000 g 10 min, read-out: water solubility of niclosamide (concentration in supernatant)
# Protocol: FIG. 2 provides a graph showing the solubility of niclosamide when incorporated with OHPP, HPMCAS, and Soluplus (Soluplus®, BASF), as compared with that of niclosamide alone. The ratio between niclosamide and excipient was 1/3, with total dispersed API of 2,500 μg/mL in HBSS buffer (37° C.). The mixing time was 2 h before subjecting the dispersion to centrifugation to collect supernatant for API quantification.
# Thereafter, the dispersions were centrifuged at 16,000 g for 10 min, and the supernatants were collected for niclosamide quantification using HPLC. The concentration of niclosamide in the supernatant was considered as its water solubility.
# [6] = Solubility of paclitaxel in HBSS (centrifugation, HPLC of supernatant); type: physicochemical; conditions: Hank's Balanced Salt Solution (HBSS), aqueous buffer, thermodynamic from solid, 37° C., 2 h mixing, API/excipient 1/3, total dispersed API 2,500 μg/mL, 16,000 g 10 min, read-out: water solubility of paclitaxel (concentration in supernatant)
# Protocol: The mixing time was 2 h before subjecting the dispersion to centrifugation to collect supernatant for paclitaxel quantification.
# Thereafter, the dispersions were centrifuged at 16,000 g for 10 min, and the supernatants were collected for paclitaxel quantification using HPLC. The concentration of paclitaxel in the supernatant was considered as its water solubility.
# Protocol for Caco-2 cell monolayer: Nic-1000 and Nic-100: supernatant from centrifuged dispersion of pure niclosamide in HBSS at dispersing dose of 1000 and 100 μg/mL, respectively. Cel-1000 and Cel-100: supernatant from centrifuged dispersion of pure celecoxib in HBSS at dispersing dose of 1000 and 100 μg/mL, respectively. Nic-OHPP-100: supernatant from centrifuged dispersion of Nic-OHPP in HBSS at dispersing dose of 100 μg/mL (for pure niclosamide). Cel-OHPP-HPMCAS-100: supernatant of Cel-OHPP-HPMCAS dispersed in HBSS buffer at 100 μg/mL.
# Caco-2 cells were seeded in the inserts with tissue-culture-treated polyester membranes (Transwells, 0.4 μm pore size, Corning) at a density of 1×10^4 cells/well. After seeding, the medium was changed every other day until the day of the permeation test. All tests were performed on day 21 after seeding. For the test, the culture medium was removed and the cells were washed twice with PBS buffer. The cells were then equilibrated in HBSS for 15 min prior to each study, and then apical and basolateral solution were aspirated.
# To measure the apical-to-basolateral permeation of API, 0.5 mL of each test solution was added to the apical compartment, and the basolateral compartment received 1.5 mL HBSS. As a control, reference cells were incubated with 0.5 mL blank HBSS on the apical side, while the basolateral side received 1.5 mL of HBSS. All cultures were incubated in an incubator (5% CO2, 37° C.) for 2 h. After the incubation, the apical and the basolateral solutions were collected respectively and their amounts of API were determined using HPLC.
# The loaded dispersions were prepared in two steps: (1) dispersing API-excipient complex solid and API alone in HBSS at the doses of 1000 μg/mL or 100 μg/mL, and (2) subjecting each dispersion to centrifugation (16,000 g, 5 min) to collect supernatant. The supernatants were loaded in the apical compartments of inserts.
compound,measurement,setting,value
Cc1ccc(-c2cc(C(F)(F)F)nn2-c2ccc(S(N)(=O)=O)cc2)cc1 [celecoxib],solubility at 2 h,[1],~12.8 µg/mL
same,"permeation of API through Caco-2 monolayer, API alone",Caco-2 cell monolayer,not sufficient to provide an appreciable permeation
COc1cc(/C=C/C(=O)CC(=O)/C=C/c2ccc(O)c(OC)c2)ccc1O [curcumin],solubility at 2 h,"physchem; 37 °C, aqueous buffer, thermodynamic from solid",~7.2 µg/mL
CC(=O)O[C@@]12CO[C@@H]1C[C@H](O)[C@@]1(C)C(=O)[C@H](O)C3=C(C)[C@@H](OC(=O)[C@H](O)[C@@H](NC(=O)OC(C)(C)C)c4ccccc4)C[C@@](O)([C@@H](OC(=O)c4ccccc4)[C@H]21)C3(C)C [docetaxel],solubility at 10 min,[2],~11.1 µg/mL
COC1=CC(=O)C[C@@H](C)[C@]12Oc1c(Cl)c(OC)cc(OC)c1C2=O [griseofulvin],solubility at 2 h,[3],~17.5 µg/mL
CCC(C)n1ncn(-c2ccc(N3CCN(c4ccc(OCC5COC(Cn6cncn6)(c6ccc(Cl)cc6Cl)O5)cc4)CC3)cc2)c1=O (centres unmarked) [itraconazole],solubility at 10 min,[4],~0.96 µg/mL
O=C(Nc1ccc([N+](=O)[O-])cc1Cl)c1cc(Cl)ccc1O [niclosamide],solubility at 2 h,[5],~13.2 µg/mL
same,"permeation of API through Caco-2 monolayer, API alone",Caco-2 cell monolayer,not sufficient to provide an appreciable permeation
CC(=O)O[C@H]1C(=O)[C@@]2(C)[C@H]([C@H](OC(=O)c3ccccc3)[C@]3(O)C[C@H](OC(=O)[C@H](O)[C@@H](NC(=O)c4ccccc4)c4ccccc4)C(C)=C1C3(C)C)[C@]1(OC(C)=O)CO[C@@H]1C[C@@H]2O [paclitaxel],solubility at 2 h,[6],~6.2 µg/mL
octenylsuccinate hydroxypropyl phytoglycogen [OHPP],increase of the solubility of curcumin in aqueous solution by use of OHPP,physchem,at least 100 times
same,permeation of API through Caco-2 monolayer when OHPP was used,Caco-2 cell monolayer,substantially increased
